The text below walks through data of patent publication US7595330B2, “Benzimidazole thiophene compounds” (SmithKline Beecham Corporation, priority 2005, dated 2009).

SMILES strings stand for the structures.

One data set deals with H1299. The data set is described as follows: Cell-Titer-Glo inhibition of cell proliferation, H1299. The class given is cell-based. The conditions noted are these: Homo sapiens, NCI-H1299, CellTiter-Glo, 72 h. The procedure:
(§1) V. Cell-Titer-Glo—Inhibition of Cell Proliferation by PLK1 Inhibitors
(§2) Exponentially growing cell lines of different tumor origins, cultured in appropriate media containing 10% fetal bovine serum at 37° C. in a 5% CO2 incubator were plated at low density (less than 2000 cells/well) in 96-well plates. Twenty four hours post-plating, cells were treated with different concentrations of test compounds ranging from 10 uM to 0.04 nM. Several wells were left untreated as a control. Seventy two hours post-treatment, cell numbers were determined using 50-100 ul per well of CellTiter-Glo (Promega #G7573). Plates were incubated at room temperature for 15 minutes and the chemiluminescent signal was read on the Victor V or Envison 2100 reader.
(§3) The Cell-Titer Glo data are shown in Table 2 below and represent a compilation of several different experiments, each performed using the general parameters outlined above, although minor variations may have been employed in some instances.
For orientation: ATP-based viability assays read luminescence as a measure of living cells.

For a further data set, the system named is MDA-MB-468. Put plainly: Cell-Titer-Glo inhibition of cell proliferation, MDA-MB-468. The class given is cell-based. The conditions noted are these: Homo sapiens, CellTiter-Glo, 72 h. The procedure:
as §1, §2, §3

The next data set deals with MCF7. Put plainly: Cell-Titer-Glo inhibition of cell proliferation, MCF7. The class given is cell-based. The conditions noted are these: Homo sapiens, CellTiter-Glo, 72 h. How it is done:
as §1, §2, §3

In a further data set the test system is HCT116. The data set is described as follows: Cell-Titer-Glo inhibition of cell proliferation, HCT116. The class given is cell-based. The conditions noted are these: Homo sapiens, HCT-116, CellTiter-Glo, 72 h. How it is done: as §1, §2, §3
Data set [1] is described as follows: High throughput solubility assay. The class given is physicochemical. The conditions noted are these: aqueous buffer, pH 7.4, 0.05M phosphate buffer. The essentials:
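Compound (up to 200 μM) shaken 24 h in 0.05M phosphate buffer pH 7.4, then filtered (0.45μ) and centrifuged. Solubility derived from HPLC peak area relative to a 20 μM standard in an aqueous/organic solvent mixture.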

The subject of a further data set is BXPC3. Put plainly: Cell-Titer-Glo inhibition of cell proliferation, BXPC3. It is filed as cell-based. The following applies: Homo sapiens, BXPC-3, CellTiter-Glo, 72 h. How it is done: as §1, §2, §3
In data set [2] the test system is normal human foreskin fibroblasts (HFF). The data set is described as follows: Methylene blue growth inhibition assay, HFF. The class given is cell-based. The conditions noted are these: Fibroblast, methylene blue, 72 h, HFF normal fibroblasts, read-out: HFF IC50. The essentials:
(§4)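 Tumour lines and HFF, plated at cell-line-specific densities in DMEM with 10% FBS, were exposed next day to compound (final DMSO 0.3%) for 72 h at 37 °C. Biomass was stained with methylene blue, solubilized in 1% N-lauroyl sarcosine and read at OD 620 nm; percent growth inhibition was calculated against vehicle controls.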

In another data set the test system is A549-L. The data set is described as follows: Cell-Titer-Glo inhibition of cell proliferation, A549-L. It is filed as cell-based. The conditions noted are these: CellTiter-Glo, 72 h. How it is done: as §1, §2, §3
The subject of another data set is RKO. The data set is described as follows: Methylene blue growth inhibition assay, RKO. The conditions noted are these: Homo sapiens, methylene blue, 72 h, read-out: RKO IC50. The class given is cell-based. The essentials: as §4
A further data set deals with human plasma proteins. The data set is described as follows: Protein binding to human plasma proteins using equilibrium dialysis. It is filed as in vitro ADME. The following applies: pH 7.4, equilibrium dialysis 6 h, 37° C. The essentials: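 Equilibrium dialysis of human plasma spiked at 2000 ng/mL against PBS pH 7.4 across a 12,000–14,000 Da membrane, 6 h at 37 °C with shaking, eight wells per compound. Donor and receiver samples were quantified by LC/MS/MS analyte/internal standard peak area ratios. Binding is reported in bands: >98%, 95–98%, <95%.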
(In general: In equilibrium dialysis free small molecules cross a membrane that holds back macromolecules.)

The next data set relates to PANC-1. Put plainly: Cell-Titer-Glo inhibition of cell proliferation, PANC-1. The following applies: Homo sapiens, CellTiter-Glo, 72 h. The class given is cell-based. How it is done:
as §1, §2, §3

The test system of the next data set is HT29. Put plainly: Cell-Titer-Glo inhibition of cell proliferation, HT29. The conditions noted are these: Homo sapiens, HT-29, CellTiter-Glo, 72 h. The class given is cell-based. How it is done:
as §1, §2, §3

Another data set deals with MiaPaca. Put plainly: Cell-Titer-Glo inhibition of cell proliferation, MiaPaca. The class given is cell-based. The conditions noted are these: Homo sapiens, MIA PaCa-2, CellTiter-Glo, 72 h. How it is done: as §1, §2, §3

One may read the IC50 as the midpoint of a concentration-inhibition curve. As a reminder, the solubility is the dissolved amount per volume that the medium holds. As a reminder, the fraction unbound is free concentration divided by total concentration. A low value points to extensive binding.

For the compound `C[C@@H](Oc1cc(-n2cnc3ccc(CN4CCN(C)CC4)cc32)sc1C(N)=O)c1ccccc1C(F)(F)F` [Example 3, 5-{6-[(4-Methylpipiperazin-1-yl)methyl]-1H-benzimidazol-1-yl}-3-{(1R)-1-[2-(trifluoromethyl)phenyl]ethoxy}thiophene-2-carboxamide], the IC50 in the data set on H1299 was under 0.5 µM; in the data set on MDA-MB-468, under 0.5 µM; in the data set with MCF7 it was under 0.5 µM; with HCT116 it was under 0.5 µM; in the data set with BXPC3, under 0.5 µM; in [2] it was under 0.1 µM. Also, the IC50 in the data set with A549-L was under 0.5 µM; in the data set on RKO, under 0.1 µM; in the data set with PANC-1, under 0.5 µM; in the data set with HT29, under 0.5 µM; in the data set on MiaPaca, under 0.5 µM. Also, the solubility at 24 h in data set [1] is over 100 µM. Further, in the data set with human plasma proteins, the fraction unbound at 6 h, 2000 ng/mL was over 0.05.
